The values that follow come from patent publication US11246822B2, “Biomedical composition for skin care and/or maintenance and delaying and/or inhibiting skin aging and the use thereof” (INDUSTRIAL TECHNOLOGY RESEARCH INSTITUTE, priority 2019, dated 2022).

SMILES strings stand for the structures.

A short description of data set [1]: DPPH free radical scavenging assay. The note with it: normal temperature; for DPPH free radical capture rate: vitamin C 10 μg/ml. The procedure: DPPH is a stable free radical. When it is dissolved in methanol or ethanol, it will appear purple and has a strong absorbance at 515 nm. When the sample to be tested can directly react with DPPH radicals, it will block the […] reaction of DPPH free radicals. At this time, the DPPH solution which originally appeared blue-violet will turn into clear yellow, and the absorbance at 515 nm will decrease, and that means that the sample to be tested has an antioxidant component that captures DPPH free radicals. The lighter the color become, the stronger ability to capture DPPH free radicals the antioxidant component has, which means the better the antioxidant capacity of the sample to be tested has. This assay was performed according to a method modified from the method shown by Parejo et al (2003). Aqueous solution of the sample to be tested and standards (Glutathione) with different concentrations each 30 μl were added to the 96-well plate, respectively, and water was used as a blank control. Thereafter, 120 μl of 100 mM Tris-HCl buffer (pH 7.4) was added to the plate and then 150 μl of 500 μM DPPH (Sigma Sigma) ethanol solution was immediately added and uniformly mixed at room temperature and allowed to stand in the dark for 20 minutes. After that, absorbance at 515 nm was detected by a spectrophotometer. The more DPPH free radicals were scavenged, the more the absorbance value decreased. Ability of each sample to be tested to scavenge DPPH free radicals (also means the strength of the hydrogen supply capacity of the sample to be tested) can be determined by percentage of decrease in absorbance relative to the blank control group.
For orientation: The DPPH test is a chemical assay of radical scavenging.

The nature of data set [2]: ABTS free radical scavenging assay. The note with it: vitamin C 10 μg/ml, normal temperature. The method, then:
Antioxidant capacity of a sample to be tested was evaluate by ABTS (English full name: 2,2′-azinobis-3-ethyl benzothiazoline-6-sulphonic acid) free radical scavenging test. Since ABTS and potassium persulphate (K2S2O8) will produce an oxidation reaction and form a stable blue-green water-soluble ABTS⋅^+ radical ion with a maximum absorption peak at 734 nm, ABTS⋅^+ free radical concentration can be detected through A734 nm. When the ABTS⋅^+ radical solution is added with an antioxidant (radical scavenger), the original single radicals are paired, causing the ABTS⋅^+ radical solution to fade and the A734 nm absorption value to decrease, thereby evaluating Free radical scavenging ability of the antioxidant can be evaluated.
The mixed solution was placed in a dark room at room temperature for 16 hours of reaction to form stable ABTS⋅^+ radical ions (blue-green), and then the mixed solution was diluted with deionized water to form a ABTS⋅^+ radical ion working solution with absorbance of 0.75±0.05 at 734 nm by a spectrophotometer.
Next, a sample to be tested and standards (Trolox) with different concentrations were added to the ABTS⋅^+ radical ion working solution, respectively, and a group in which only deionized water was added was used as a control group. Absorbance at 734 nm was detected by a spectrophotometer after 20 minutes of reaction. Abilities to scavenge ABTS⋅+ radicals of the standards (Trolox) with different concentrations were plotted as a scavenging standard curve. The measured absorbance of the sample to be tested and the control group are converted according to the standard curve to know the free radical scavenging ability of the sample to be tested. The formula for calculating the scavenging ability is: (1-ABSsample/ABScontrol)×100.

A short description of data set [3]: Antioxidant degradation evaluation assay (iodometric titration of vitamin C). Type of data set: physicochemical. The note with it: vitamin C 10 μg/ml. The procedure:
This assay was performed according to a method modified from the method shown by Roberts et al. (1997). First, a liquid sample containing a specific antioxidant at a concentration to be tested was prepared, and the liquid sample containing the specific antioxidant was added into a 250 mL Erlenmeyer flask by a pipette and deionized water was added the to the Erlenmeyer flask to reach the 100 mL scale mark. At the same time, 1 mL of 0.1 M sodium iodide (NaI) and 1 mL of 0.1 M hydrochloric acid (hydrogen chloride, HCl) and 1 mL of 2% starch aqueous solution (indicator) were added to the Erlenmeyer flask. Next, a burette was rinsed the with 0.025 M potassium iodate (KIO3) at least twice, first, and then filled with 0.025 M potassium iodate in a technique of avoiding bubble formation during the filling, and the initial volume of the solution (Vi) in the burette was record after the filling. Thereafter, the liquid sample containing the specific antioxidant mentioned above was titrated with 0.025 M potassium iodate. […] Depending on the condition, the titration operation mentioned above could be repeated two or three times, as appropriate. Finally, the specific antioxidant content could be calculated from the titration volume of potassium iodate.

Setting [4] is: room temperature (about 26° C.), 24 hours.

As for `O=C1O[C@H]([C@@H](O)CO)C(O)=C1O` [vitamin C, ascorbic acid], the “decrease of antioxidant capacity (DPPH)” value in data set [1] (after 24 hours) is recorded as “about 60%”. Moreover, the “DPPH free radical capture rate” value in data set [1] (0 hour) worked out at 86.77%; in data set [1] (72 hours), 2.99%; in data set [1] (after 24 hours), 34.67%. In addition, the “ABTS radical ion scavenging rate” value in data set [2] (0 hours) came to 57.08%; in data set [2] (72 hours), 2.49%; in data set [2] (after 24 hours), 22.45%. The “vitamin C concentration decreased” value in data set [3] (40° C., 4 hours) was found to be 20.4%. Moreover, the “vitamin C concentration, % of the initial concentration” value is “about 24.3%” in data set [3] (40° C., 24 hours); 3.3% in data set [3] (40° C., 72 hours); “about 40%” in data set [3] (setting [4]); “about 0.9%” in data set [3] (room temperature (about 26° C.), 72 hours). For the same compound, the “vitamin C concentration reduced / degraded” value in data set [3] (setting [4]) was determined as 62.6%.
